According to patent publication US9463252B2, “Auristatin drug linker conjugates” (priority 2008, dated 2016):
≈ marks a conversion by molar mass, not a printed value. Non-standard residues stand in square brackets, D forms with d. Residues, ends and D or L forms follow the SMILES beside them. *: point of attachment. Dolaproine = CO[C@@H]([C@@H]1CCCN1)[C@@H](C)C(=O)O; Hexanoyl(6-maleimido) = O=C1C=CC(=O)N1CCCCCC(=O)*; Dil = CC[C@H](C)[C@H](NC)[C@@H](CC(=O)O)OC; NMeV = CN[C@H](C(=O)O)C(C)C

Key:
Karpas 299 = assay: Cytotoxicity of Auristatin-Peptide-cAC10 conjugates on CD30+ cells; format: cell-based, human
Method: (§1) Following the procedure described in Example 57, Auristatin-Dipeptide-cAC10 antibody conjugates were evaluated on CD30+ positive cell lines, Karpas 299, L428 and L540cy. In addition, a control conjugate, cAC10-vc-PABC-MMAF, was used. […] The conjugates contain approximately 4 drugs per antibody.
(§2) Following the procedure described as Examples 57 and 58, the activities of Auristatin-Peptide-cAC10 conjugates were evaluated on CD30^+ cells, such as Karpas 299, L428, and L540cy. The activities of Auristatin-Peptide-hBU12 conjugates were evaluated on CD19^+ cells such as Ramos, SUDHL-4, and ARH-77. The activities of Auristatin-Peptide-anti-LIV-1 conjugates were evaluated on LIV-1 positive cell lines MCF-7 and SKOV-3. The activities of Auristatin-Peptide-BR96 conjugates were evaluated on Le^y positive cells H3396, RCA, and L2987. All conjugates contain approximately 4 drugs per antibody.

L540cy = assay: as above; format: cell-based, human
Method: as §1, §2

L428 [1] = assay: as above; format: cell-based
Method: as §1, §2

ARH-77 = assay: Cytotoxicity of Auristatin-Peptide-hBU12 conjugates on CD19+ cells; format: cell-based; conditions: Table 11, ~4 drugs per antibody
Method: as §2

Ramos = assay: as above; format: cell-based; conditions: Table 11, ~4 drugs per antibody
Method: as §2

SUDHL-4 = assay: as above; format: cell-based; conditions: Table 11, ~4 drugs per antibody
Method: as §2

MCF-7 = assay: Cytotoxicity of Auristatin-Peptide-anti-LIV-1 conjugates on LIV-1 positive cells; format: cell-based; conditions: Table 11, ~4 drugs per antibody
Method: as §2

SKOV-3 = assay: as above; format: cell-based; conditions: Table 11, ~4 drugs per antibody
Method: as §2

H3396 = assay: Cytotoxicity of Auristatin-Peptide-BR96 conjugates on Le^y positive cells; format: cell-based; conditions: Table 11, ~4 drugs per antibody
Method: as §2

L2987 = assay: as above; format: cell-based; conditions: Table 11, ~4 drugs per antibody
Method: as §2

RCA = assay: as above; format: cell-based; conditions: Table 11, ~4 drugs per antibody
Method: as §2

786-O = assay: Cytotoxicity of Auristatin-Peptide-h1F6 conjugates, resazurin assay; format: cell-based, human; conditions: for IC50 786-0: Table 4
Description: (§3) The conjugates contain approximately 4 drugs per antibody.

LP-1 = assay: as above; format: cell-based, human
Description: as §3

Caki-1 = assay: as above; format: cell-based
Description: as §3

L428 [2] = assay: as above; format: cell-based; conditions: for IC50 L428: ~4 drugs/Ab
Description: as §3

U251 = assay: as above; format: cell-based; conditions: Table 4, ~4 drugs/Ab
Description: as §3

UMRC-3 = assay: as above; format: cell-based
Description: as §3

HCT-116 (CD70−) = assay: Cytotoxicity of Auristatin-Peptide-h1F6 conjugates, CD70- control cell line; format: cell-based
Description: as §3

[3] = Tolerability (MTD) of conjugates in mice; format: in vivo, mouse; conditions: h1F6 conjugates; for tolerability at 100 mg/kg dose (in words): single dose 100 mg/kg
Method: The tolerability, measured as maximum tolerated dose (MTD), was determined in mice based on animals' weight loss after treatment. Animals were usually monitored for 14 days. A conjugate is considered to be tolerated at a determined dose if single iv treatment at such dose results in a transient weight loss of no more than 20% of initial body weight of animals and no other signs of toxicity are observed. […] AF-Met-(D)Lys and AF-Asn-(D)Lys conjugates were tolerated at doses as high as 100 mg/kg (FIG. 7). Corresponding conjugates of auristatins containing Methionine (AM) and Tryptophan (AW) at the C-terminal position of the drug were tolerated even better, up to 150 mg/kg (FIG. 8). […] Thus, the Auristatin-Dipeptide Drug Linkers provide ADCs with significant therapeutic window for therapeutic treatment (e.g., cancer).

Caki-2 = assay: Cytotoxicity of Auristatin-Peptide-h1F6 conjugates, resazurin assay; format: cell-based; conditions: Table 5; h1F6 conjugates, ~4 drugs/Ab
Method: as §3
Following the procedure described as Examples 57 and 58, Auristatin-Peptide-h1F6 conjugates were evaluated on CD70^+ cell, such as 786-O, Caki-1, Caki-2, and L428. Conjugates contain approximately 4 drugs per antibody.

[4] = Table 11, ~4 drugs per antibody
[5] = Table 7, h1F6 conjugates, AF vs MMAF
[6] = Table 8, h1F6 conjugates, D vs L amino acid in second linker position
[7] = Table 9, h1F6-Drug(4) conjugates, mono- vs dipeptide linker
[8] = Table 4, h1F6 conjugates, ~4 drugs/Ab
[9] = Table 5, h1F6 conjugates, ~4 drugs/Ab

Compound | IC50 786-0 (786-O; h1F6 conjugates, ~4 drugs/Ab) [ng/mL] | IC50 LP-1 (LP-1; [8]) | IC50 Caki-1 (Caki-1; [8]) [ng/mL] | IC50 L428 (L428 [2]; Table 4, h1F6 conjugates) [ng/mL] | IC50 U251 (U251) [ng/mL] | IC50 UMRC-3 (UMRC-3; [8]) [ng/mL] | IC50 HCT-116 (CD70−) (HCT-116 (CD70−); Table 4, ~4 drugs/Ab) [ng/mL] | IC50 Karpas 299 (Karpas 299; Table 6, ~4 drugs/Ab) [ng/mL] | IC50 L540cy (L540cy; Table 6, ~4 drugs/Ab) [ng/mL] | IC50 L428 (L428 [1]; Table 6, ~4 drugs/Ab) [ng/mL] | further results
CC[C@H](C)[C@@H]([C@@H](CC(=O)N1CCC[C@H]1[C@H](OC)[C@@H](C)C(=O)N[C@@H](Cc1ccccc1)C(=O)O)OC)N(C)C(=O)[C@@H](NC(=O)[C@H](C(C)C)N(C)C(=O)CCCCCN1C(=O)C=CC1=O)C(C)C [MC-MMAP, Maleimidocaproyl-monomethylauristatin F, reference compound] ({Hexanoyl(6-maleimido)}-[NMeV]V[Dil][Dolaproine]F-OH) | – | – | – | – | – | – | – | – | – | – | IC50 Karpas 299 (Karpas 299; [4]): 3 ng/mL (≈ 0.00324 µM); IC50 L540cy (L540cy; [4]): 7 ng/mL (≈ 0.00757 µM); IC50 L428 (L428 [1]; [4]): 1 ng/mL (≈ 0.00108 µM); IC50 ARH-77 (ARH-77): 255 ng/mL (≈ 0.276 µM); IC50 Ramos (Ramos): 7 ng/mL (≈ 0.00757 µM); IC50 SUDHL-4 (SUDHL-4): ~10,000 ng/mL; IC50 MCF-7 (MCF-7): 3 ng/mL (≈ 0.00324 µM); IC50 SKOV-3 (SKOV-3): 2450 ng/mL (≈ 2.65 µM); IC50 H3396 (H3396): 42 ng/mL (≈ 0.0454 µM); IC50 L2987 (L2987): 626 ng/mL (≈ 0.677 µM); IC50 RCA (RCA): 7400 ng/mL (≈ 8 µM)
AF-Asparagine-(D)Lysine-diaminoethane-propionyl maleimide [AF-Asn-(D)Lys] | 19 | 417 ng/mL | 10 | 24 | 60 | 28 | >1000 | 44 | 4 | 0.1 | IC50 786-O (786-O; [5]): 10 ng/mL; IC50 786-O (786-O; [6]): 10 ng/mL; IC50 786-O (786-O; [7]): 10 ng/mL; IC50 LP-1 (LP-1; [5]): 479 ng/mL; IC50 LP-1 (LP-1; [6]): 479 ng/mL; IC50 LP-1 (LP-1; [7]): 479 ng/mL; IC50 Caki-1 (Caki-1; [5]): 6 ng/mL; IC50 Caki-1 (Caki-1; [6]): 6 ng/mL; IC50 Caki-1 (Caki-1; [7]): 6 ng/mL; IC50 L-428 (L428 [2]; [5]): 9 ng/mL; IC50 L-428 (L428 [2]; [6]): 9 ng/mL; IC50 L-428 (L428 [2]; [7]): 9 ng/mL; IC50 UMRC-3 (UMRC-3; [5]): 32 ng/mL; IC50 UMRC-3 (UMRC-3; [6]): 32 ng/mL; IC50 UMRC-3 (UMRC-3; [7]): 32 ng/mL; tolerability at 100 mg/kg dose (in words) [3]: tolerated
AF-Asparagine-diaminoethane-propionyl maleimide [AF-Asn] | – | – | – | – | – | – | – | – | – | – | IC50 786-O (786-O; [7]): 10 ng/mL; IC50 LP-1 (LP-1; [7]): 209 ng/mL; IC50 Caki-1 (Caki-1; [7]): 6 ng/mL; IC50 L-428 (L428 [2]; [7]): 9 ng/mL; IC50 UMRC-3 (UMRC-3; [7]): 28 ng/mL; tolerability at 50 mg/kg dose (in words) ([3]; single dose 50 mg/kg, FIG. 15): toxic
AF-Isoleucine-Proline-diaminoethane-propionyl maleimide [AF-Ile-Pro] | 9.8 | 219 ng/mL | 9 | 5 | 45 | 16 | >1000 | 0.6 | 0.7 | 0.1 | –
AF-Methionine-(D)Lysine-diaminoethane-propionyl maleimide [AF-Met-(D)Lys] | 55 | >10,000 ng/mL | 25 | 1698 | 98 | 132 | >1000 | 2 | 3 | 1.5 | IC50 786-O (786-O; [5]): 12 ng/mL; IC50 786-O (786-O; [6]): 12 ng/mL; IC50 786-O (786-O; [7]): 12 ng/mL; IC50 LP-1 (LP-1; [5]): >1000 ng/mL; IC50 LP-1 (LP-1; [6]): >1000 ng/mL; IC50 LP-1 (LP-1; [7]): >1000 ng/mL; IC50 Caki-1 (Caki-1; [5]): 9 ng/mL; IC50 Caki-1 (Caki-1; [6]): 9 ng/mL; IC50 Caki-1 (Caki-1; [7]): 9 ng/mL; IC50 L-428 (L428 [2]; [5]): 158 ng/mL; IC50 L-428 (L428 [2]; [6]): 158 ng/mL; IC50 L-428 (L428 [2]; [7]): 158 ng/mL; IC50 UMRC-3 (UMRC-3; [5]): 182 ng/mL; IC50 UMRC-3 (UMRC-3; [6]): 182 ng/mL; IC50 UMRC-3 (UMRC-3; [7]): 182 ng/mL
AF-Norvaline-(D)Aspartic Acid-diaminoethane-propionyl maleimide [AF-NorVal-(D)Asp] | 28 | 537 ng/mL | 12 | 24 | 78 | 25 | >1000 | 0.5 | 0.6 | 0.09 | –
AF-Phenylglycine-(D)Lysine-diaminoethane-propionyl maleimide [AF-PhenylGly-(D)Lys] | 339 | >10,000 ng/mL | 44 | 275 | 98 | 1096 | >1000 | 21 | 6 | 2 | –
AF-Trimethyllysine-Proline-diaminoethane-propionyl-maleimide [AF-Me3Lys-Pro] | 20 | 298 ng/mL | 11 | 24 | 78 | 30 | >1000 | 0.6 | 0.8 | 0.09 | –
AF-Tyrosine-(D)Aspartic Acid-diaminoethane-propionyl maleimide [AF-Tyr-(D)Asp] | 24 | 398 ng/mL | 9 | 27 | 72 | 32 | >1000 | 0.6 | 0.7 | 0.06 | –
AF-β-alanine-(D)Aspartic Acid-diaminoethane-propionyl maleimide [AF-β-Ala-(D)Asp] | 525 | >10,000 ng/mL | 1585 | 1096 | 93 | 132 | >1000 | 371 | 1.6 | 0.5 | –
MMAF-Asparagine-(D)Lysine-diaminoethane-propionyl maleimide [MMAF-Asn-(D)Lys] | – | – | – | – | – | – | – | – | – | – | IC50 786-O (786-O; [5]): 9 ng/mL; IC50 LP-1 (LP-1; [5]): 110 ng/mL; IC50 Caki-1 (Caki-1; [5]): 7 ng/mL; IC50 L-428 (L428 [2]; [5]): 7 ng/mL; IC50 UMRC-3 (UMRC-3; [5]): 19 ng/mL; tolerability at 100 mg/kg dose (in words) [3]: animal loss
vc-PABC-MMAF [reference compound] | 7 | 22 ng/mL | 3 | 7 | 10 | 14 | >1000 | 3 | 3 | 0.5 | IC50 786-O (786-O; [9]): 5 ng/mL; IC50 Caki-1 (Caki-1; [9]): 12 ng/mL; IC50 L428 (L428 [2]; Table 5, h1F6 conjugates): 4 ng/mL; IC50 HCT-116 (CD70−) (HCT-116 (CD70−); Table 5, ~4 drugs/Ab): >1000 ng/mL; IC50 Caki-2 (Caki-2): 11 ng/mL
